From patent US12448362B2, “Fluorine-containing pyrimidine compound and fluorine-containing pyrimidinone compound” (UNIMATEC CO., LTD., priority 2020, dated 2025) come the findings set out here.

This experiment concerns cucumber powdery mildew. The experiment can be described thus: Evaluation test for cucumber powdery mildew (cucumber leaf disc, lesion area after 14 days). Particulars: 500 ppm in acetone; cucumber leaf disc sprayed with spore suspension; 25° C., 12 hours illumination; lesion area after 14 days vs untreated section. The experiment is classed as in vivo. The method, then:
Each of the fluorine-containing pyrimidine compounds prepared in Examples 32 and 36 was dissolved in acetone and diluted to a concentration of 500 ppm. Subsequently, a cucumber leaf disc (20 mm in diameter) was put into the diluted acetone solution and completely wetted, and then the cucumber leaf disc was placed so that the back surface of the cucumber leaf disc was in contact with a plain agar medium that had been prepared separately, and air-dried. After air-drying, a spore suspension of the cucumber powdery mildew was uniformly sprayed on the cucumber leaf disc and air-dried. The cucumber leaf disc was then left in a thermostat (25° C., 12 hours illumination), and after 14 days, the area of lesions was examined to calculate the control value. Note that the control value was calculated according to the following formula. In the following formula, “untreated” means that a cucumber leaf disc was wetted with only acetone as a test solution, and “untreated section” means a section of the wetted cucumber leaf disc. [formula]

The molecule `Cc1ccc(Nc2nc(-c3ccccn3)nc(Cl)c2C(F)(F)F)cc1` [Example 32, 6-chloro-N-(4-methylphenyl)-2-(2-pyridyl)-5-(trifluoromethyl)-4-pyrimidinamine] displayed a Control value of 57.1.
The value for `Cc1ccc(Nc2nc(-c3cccnc3)nc(Cl)c2C(F)(F)F)cc1` [Example 36, 6-chloro-N-(4-methylphenyl)-2-(3-pyridyl)-5-(trifluoromethyl)-4-pyrimidinamine] was 67.9.
